ChEMBL document CHEMBL4507295 (2021)

Experiments:
[1] = molecular target: Beta-3 adrenergic receptor (Homo sapiens) (UniProt P13945); conditions: Compound concentration 10.0 uM
[2] = molecular target: SRSF protein kinase 3 (Homo sapiens) (UniProt Q9UPE1); conditions: Compound concentration 1000.0 nM
[3] = molecular target: Serine/threonine-protein kinase PLK2 (Homo sapiens) (UniProt Q9NYY3); conditions: Compound concentration 1000.0 nM
[4] = molecular target: Ephrin type-B receptor 6 (Homo sapiens) (UniProt O15197); conditions: Compound concentration 1000.0 nM
[5] = molecular target: Serine/threonine-protein kinase Chk2 (Homo sapiens) (UniProt O96017); conditions: Compound concentration 1000.0 nM
[6] = molecular target: Protein-tyrosine kinase 2-beta (Homo sapiens) (UniProt Q14289); conditions: Compound concentration 1000.0 nM
[7] = molecular target: Sigma intracellular receptor 2 (Homo sapiens) (UniProt Q5BJF2); conditions: Compound concentration 10.0 uM
Sigma intracellular receptor 2 (Homo sapiens), sequence (Q5BJF2 whole entry): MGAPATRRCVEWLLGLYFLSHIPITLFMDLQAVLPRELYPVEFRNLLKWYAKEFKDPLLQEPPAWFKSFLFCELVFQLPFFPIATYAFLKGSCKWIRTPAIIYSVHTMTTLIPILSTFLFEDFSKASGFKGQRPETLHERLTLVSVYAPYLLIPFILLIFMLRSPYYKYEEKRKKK

[8] = molecular target: Alpha-1B adrenergic receptor (Homo sapiens) (UniProt P35368); conditions: Compound concentration 10.0 uM
[9] = molecular target: Calcium/calmodulin-dependent protein kinase type 1B (Homo sapiens) (UniProt Q6P2M8); conditions: Compound concentration 1000.0 nM
Calcium/calmodulin-dependent protein kinase type 1B (Homo sapiens), sequence (Q6P2M8 whole entry): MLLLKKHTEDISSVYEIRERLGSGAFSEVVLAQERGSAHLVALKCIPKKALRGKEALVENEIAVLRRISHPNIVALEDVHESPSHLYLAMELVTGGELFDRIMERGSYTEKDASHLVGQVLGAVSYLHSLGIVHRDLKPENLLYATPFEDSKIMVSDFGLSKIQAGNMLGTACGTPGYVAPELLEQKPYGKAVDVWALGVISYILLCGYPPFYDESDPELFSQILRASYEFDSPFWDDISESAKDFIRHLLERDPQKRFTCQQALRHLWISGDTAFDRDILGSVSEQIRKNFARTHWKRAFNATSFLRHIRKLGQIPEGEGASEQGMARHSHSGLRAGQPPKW

[10] = molecular target: Calcium/calmodulin-dependent protein kinase type IV (Homo sapiens) (UniProt Q16566); conditions: Compound concentration 1000.0 nM
[11] = molecular target: Tyrosine-protein kinase Yes (Homo sapiens) (UniProt P07947); conditions: Compound concentration 1000.0 nM
[12] = molecular target: Serine/threonine-protein kinase haspin (Homo sapiens) (UniProt Q8TF76); conditions: Compound concentration 1000.0 nM
[13] = molecular target: Serine/threonine-protein kinase ICK (Homo sapiens) (UniProt Q9UPZ9); conditions: Compound concentration 1000.0 nM
[14] = molecular target: Ribosomal protein S6 kinase alpha-6 (Homo sapiens) (UniProt Q9UK32); conditions: Compound concentration 1000.0 nM
Ribosomal protein S6 kinase alpha-6 (Homo sapiens), sequence (Q9UK32 whole entry): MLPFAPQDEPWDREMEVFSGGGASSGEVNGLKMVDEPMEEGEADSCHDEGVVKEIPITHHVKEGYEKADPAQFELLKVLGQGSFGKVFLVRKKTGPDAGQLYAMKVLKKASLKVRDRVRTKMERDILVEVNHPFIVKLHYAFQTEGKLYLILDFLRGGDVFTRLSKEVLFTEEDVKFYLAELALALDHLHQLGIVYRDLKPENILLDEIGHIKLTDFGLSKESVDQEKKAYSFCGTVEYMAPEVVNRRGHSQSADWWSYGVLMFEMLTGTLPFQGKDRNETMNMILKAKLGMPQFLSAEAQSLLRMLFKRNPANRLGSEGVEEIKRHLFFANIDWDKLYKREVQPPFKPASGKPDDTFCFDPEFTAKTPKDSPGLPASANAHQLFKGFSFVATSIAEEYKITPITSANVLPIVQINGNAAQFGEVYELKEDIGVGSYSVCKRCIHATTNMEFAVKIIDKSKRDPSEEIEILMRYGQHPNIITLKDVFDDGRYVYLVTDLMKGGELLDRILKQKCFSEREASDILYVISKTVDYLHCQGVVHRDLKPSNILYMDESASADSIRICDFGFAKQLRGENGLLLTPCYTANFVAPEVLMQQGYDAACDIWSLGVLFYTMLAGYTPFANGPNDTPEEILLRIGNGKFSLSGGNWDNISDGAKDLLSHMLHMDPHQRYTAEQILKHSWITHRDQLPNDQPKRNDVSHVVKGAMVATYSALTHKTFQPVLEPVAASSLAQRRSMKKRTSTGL

[15] = molecular target: MAP kinase-activated protein kinase 2 (Homo sapiens) (UniProt P49137); conditions: Compound concentration 1000.0 nM
MAP kinase-activated protein kinase 2 (Homo sapiens), sequence (P49137 whole entry, looked up): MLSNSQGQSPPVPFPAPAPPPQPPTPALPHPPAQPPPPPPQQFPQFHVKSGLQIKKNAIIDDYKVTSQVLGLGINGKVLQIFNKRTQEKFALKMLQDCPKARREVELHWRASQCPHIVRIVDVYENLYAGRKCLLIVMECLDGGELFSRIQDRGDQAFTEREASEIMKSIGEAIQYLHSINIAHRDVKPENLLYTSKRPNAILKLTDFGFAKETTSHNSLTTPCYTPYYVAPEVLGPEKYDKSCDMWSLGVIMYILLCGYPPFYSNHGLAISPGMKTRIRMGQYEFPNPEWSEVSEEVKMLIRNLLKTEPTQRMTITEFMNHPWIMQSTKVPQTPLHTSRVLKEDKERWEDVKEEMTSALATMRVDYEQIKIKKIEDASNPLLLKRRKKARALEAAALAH

[16] = molecular target: Homeodomain-interacting protein kinase 4 (Homo sapiens) (UniProt Q8NE63); conditions: Compound concentration 1000.0 nM
[17] = molecular target: Serine/threonine-protein kinase 17B (Homo sapiens) (UniProt O94768); conditions: Compound concentration 1000.0 nM
[18] = molecular target: Casein kinase I isoform alpha (Homo sapiens) (UniProt P48729); conditions: Compound concentration 1000.0 nM
[19] = molecular target: Dual specificity mitogen-activated protein kinase kinase 6 (Homo sapiens) (UniProt P52564); conditions: Compound concentration 1000.0 nM
[20] = molecular target: Serine/threonine-protein kinase TAO2 (Homo sapiens) (UniProt Q9UL54); conditions: Compound concentration 1000.0 nM
[21] = molecular target: Dual specificity mitogen-activated protein kinase kinase 2 (Homo sapiens) (UniProt P36507); conditions: Compound concentration 1000.0 nM
[22] = molecular target: Serine/threonine-protein kinase 38 (Homo sapiens) (UniProt Q15208); conditions: Compound concentration 1000.0 nM
[23] = molecular target: Mitogen-activated protein kinase 12 (Homo sapiens) (UniProt P53778); conditions: Compound concentration 1000.0 nM
[24] = molecular target: Myosin-IIIb (Homo sapiens) (UniProt Q8WXR4); conditions: Compound concentration 1000.0 nM
[25] = molecular target: Inhibitor of nuclear factor kappa-B kinase subunit epsilon (Homo sapiens) (UniProt Q14164); conditions: Compound concentration 1000.0 nM
[26] = molecular target: Membrane-associated tyrosine- and threonine-specific cdc2-inhibitory kinase (Homo sapiens) (UniProt Q99640); conditions: Compound concentration 1000.0 nM
[27] = molecular target: STE20-like serine/threonine-protein kinase (Homo sapiens) (UniProt Q9H2G2); conditions: Compound concentration 1000.0 nM
[28] = molecular target: Dual specificity mitogen-activated protein kinase kinase 3 (Homo sapiens) (UniProt P46734); conditions: Compound concentration 1000.0 nM
[29] = test system: ALK tyrosine kinase receptor (Homo sapiens), Q9UM73 [C1156Y]; conditions: Compound concentration 1000.0 nM
[30] = molecular target: Platelet-derived growth factor receptor beta (Homo sapiens) (UniProt P09619); conditions: Compound concentration 1000.0 nM
Platelet-derived growth factor receptor beta (Homo sapiens), sequence (P09619 whole entry): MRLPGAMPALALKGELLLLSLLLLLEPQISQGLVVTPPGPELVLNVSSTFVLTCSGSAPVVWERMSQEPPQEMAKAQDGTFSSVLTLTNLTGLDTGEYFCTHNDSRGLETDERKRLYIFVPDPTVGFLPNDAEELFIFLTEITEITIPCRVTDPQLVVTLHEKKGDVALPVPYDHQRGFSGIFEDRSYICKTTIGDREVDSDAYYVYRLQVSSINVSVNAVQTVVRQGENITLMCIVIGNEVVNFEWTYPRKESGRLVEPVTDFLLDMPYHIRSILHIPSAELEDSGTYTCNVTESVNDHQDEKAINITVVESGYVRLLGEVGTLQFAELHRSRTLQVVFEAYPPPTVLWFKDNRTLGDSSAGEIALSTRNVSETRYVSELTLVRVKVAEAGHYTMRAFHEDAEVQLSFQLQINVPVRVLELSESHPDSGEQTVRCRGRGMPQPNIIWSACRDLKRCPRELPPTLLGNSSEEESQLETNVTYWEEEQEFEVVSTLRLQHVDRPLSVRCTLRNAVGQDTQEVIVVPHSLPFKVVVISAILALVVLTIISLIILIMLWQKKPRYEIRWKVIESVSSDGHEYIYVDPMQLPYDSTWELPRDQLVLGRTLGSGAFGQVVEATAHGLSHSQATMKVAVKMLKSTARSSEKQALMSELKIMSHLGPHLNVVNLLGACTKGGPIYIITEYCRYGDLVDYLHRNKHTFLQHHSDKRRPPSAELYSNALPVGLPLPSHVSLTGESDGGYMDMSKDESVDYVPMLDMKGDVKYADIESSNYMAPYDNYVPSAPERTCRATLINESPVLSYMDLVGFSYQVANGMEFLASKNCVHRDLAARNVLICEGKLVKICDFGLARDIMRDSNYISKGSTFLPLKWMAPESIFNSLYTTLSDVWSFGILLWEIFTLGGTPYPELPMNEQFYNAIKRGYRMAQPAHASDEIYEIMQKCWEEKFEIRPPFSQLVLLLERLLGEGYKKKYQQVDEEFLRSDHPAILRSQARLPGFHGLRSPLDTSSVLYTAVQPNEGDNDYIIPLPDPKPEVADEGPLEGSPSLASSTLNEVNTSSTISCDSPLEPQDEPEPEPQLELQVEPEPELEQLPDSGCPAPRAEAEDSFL

[31] = molecular target: Serine/threonine-protein kinase Chk1 (Homo sapiens) (UniProt O14757); conditions: Compound concentration 1000.0 nM
[32] = molecular target: Dual serine/threonine and tyrosine protein kinase (Homo sapiens) (UniProt Q6XUX3); conditions: Compound concentration 1000.0 nM
[33] = molecular target: Death-associated protein kinase 3 (Homo sapiens) (UniProt O43293); conditions: Compound concentration 1000.0 nM
[34] = molecular target: Casein kinase I isoform delta (Homo sapiens) (UniProt P48730); conditions: Compound concentration 1000.0 nM
[35] = molecular target: Cyclin-dependent kinase 3 (Homo sapiens) (UniProt Q00526); conditions: Compound concentration 1000.0 nM
[36] = molecular target: cAMP-dependent protein kinase catalytic subunit PRKX (Homo sapiens) (UniProt P51817); conditions: Compound concentration 1000.0 nM
cAMP-dependent protein kinase catalytic subunit PRKX (Homo sapiens), sequence (P51817 whole entry): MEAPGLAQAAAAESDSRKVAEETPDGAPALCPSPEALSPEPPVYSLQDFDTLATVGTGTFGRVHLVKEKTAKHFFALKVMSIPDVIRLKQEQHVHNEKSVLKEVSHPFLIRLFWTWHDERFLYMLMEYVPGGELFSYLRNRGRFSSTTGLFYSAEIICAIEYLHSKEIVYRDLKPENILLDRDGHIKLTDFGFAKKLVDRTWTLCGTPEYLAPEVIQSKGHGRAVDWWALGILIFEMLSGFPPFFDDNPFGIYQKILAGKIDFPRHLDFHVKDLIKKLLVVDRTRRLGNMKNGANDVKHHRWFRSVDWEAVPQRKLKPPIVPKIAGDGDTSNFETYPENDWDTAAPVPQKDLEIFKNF

[37] = molecular target: Ribosomal protein S6 kinase alpha-2 (Homo sapiens) (UniProt Q15349); conditions: Compound concentration 1000.0 nM
[38] = molecular target: Glycogen synthase kinase-3 alpha (Homo sapiens) (UniProt P49840); conditions: Compound concentration 1000.0 nM
[39] = molecular target: Atypical kinase COQ8A, mitochondrial (Homo sapiens) (UniProt Q8NI60); conditions: Compound concentration 1000.0 nM
[40] = molecular target: Inhibitor of nuclear factor kappa-B kinase subunit beta (Homo sapiens) (UniProt O14920); conditions: Compound concentration 1000.0 nM
[41] = molecular target: Serine/threonine-protein kinase Sgk3 (Homo sapiens) (UniProt Q96BR1); conditions: Compound concentration 1000.0 nM
[42] = molecular target: Serine/threonine-protein kinase LATS2 (Homo sapiens) (UniProt Q9NRM7); conditions: Compound concentration 1000.0 nM
[43] = molecular target: 5-hydroxytryptamine receptor 1D (Homo sapiens) (UniProt P28221); conditions: Compound concentration 10.0 uM
[44] = molecular target: MAP kinase-interacting serine/threonine-protein kinase 1 (Homo sapiens) (UniProt Q9BUB5); conditions: Compound concentration 1000.0 nM
[45] = molecular target: Tyrosine-protein kinase receptor UFO (Homo sapiens) (UniProt P30530); conditions: Compound concentration 1000.0 nM
Tyrosine-protein kinase receptor UFO (Homo sapiens), sequence (P30530 whole entry): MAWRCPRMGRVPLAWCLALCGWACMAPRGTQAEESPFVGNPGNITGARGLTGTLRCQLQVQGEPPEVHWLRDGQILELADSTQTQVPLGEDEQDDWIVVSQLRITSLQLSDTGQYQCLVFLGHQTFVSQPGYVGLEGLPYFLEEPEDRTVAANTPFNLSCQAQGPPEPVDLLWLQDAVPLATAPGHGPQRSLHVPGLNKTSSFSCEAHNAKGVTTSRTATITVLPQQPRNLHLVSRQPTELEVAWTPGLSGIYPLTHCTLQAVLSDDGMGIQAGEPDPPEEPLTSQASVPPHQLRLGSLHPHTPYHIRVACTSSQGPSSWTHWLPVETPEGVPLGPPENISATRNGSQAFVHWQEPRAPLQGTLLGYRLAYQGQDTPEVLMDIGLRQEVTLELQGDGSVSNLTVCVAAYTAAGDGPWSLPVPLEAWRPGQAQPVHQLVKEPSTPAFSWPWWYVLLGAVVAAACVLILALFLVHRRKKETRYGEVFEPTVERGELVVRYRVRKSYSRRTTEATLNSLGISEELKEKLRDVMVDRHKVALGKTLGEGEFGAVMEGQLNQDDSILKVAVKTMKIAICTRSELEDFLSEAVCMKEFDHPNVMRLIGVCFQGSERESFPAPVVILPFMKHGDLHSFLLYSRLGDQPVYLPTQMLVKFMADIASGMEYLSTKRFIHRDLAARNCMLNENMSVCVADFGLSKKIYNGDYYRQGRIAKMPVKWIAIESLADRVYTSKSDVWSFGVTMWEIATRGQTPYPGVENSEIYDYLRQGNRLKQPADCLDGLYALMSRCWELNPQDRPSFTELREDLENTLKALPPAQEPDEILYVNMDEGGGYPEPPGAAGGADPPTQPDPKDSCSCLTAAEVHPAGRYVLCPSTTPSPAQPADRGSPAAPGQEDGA

SRSF protein kinase 3 (Homo sapiens), sequence (Q9UPE1 whole entry): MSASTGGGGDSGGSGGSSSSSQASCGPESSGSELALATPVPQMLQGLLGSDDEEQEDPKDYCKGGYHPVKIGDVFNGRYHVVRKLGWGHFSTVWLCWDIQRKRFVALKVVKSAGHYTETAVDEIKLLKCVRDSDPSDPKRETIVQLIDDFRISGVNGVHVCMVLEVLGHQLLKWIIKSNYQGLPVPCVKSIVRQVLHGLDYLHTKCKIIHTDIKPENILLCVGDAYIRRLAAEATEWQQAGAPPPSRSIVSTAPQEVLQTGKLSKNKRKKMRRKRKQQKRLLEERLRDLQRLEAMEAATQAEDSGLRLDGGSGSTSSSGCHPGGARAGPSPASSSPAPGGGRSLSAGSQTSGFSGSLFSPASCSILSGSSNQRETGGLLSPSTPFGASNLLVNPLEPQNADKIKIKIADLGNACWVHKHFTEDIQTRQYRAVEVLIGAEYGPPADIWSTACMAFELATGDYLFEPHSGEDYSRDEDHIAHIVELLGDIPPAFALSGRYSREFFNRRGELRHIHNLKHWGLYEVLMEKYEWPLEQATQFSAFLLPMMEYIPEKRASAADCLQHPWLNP
Beta-3 adrenergic receptor (Homo sapiens), sequence (P13945 whole entry, looked up): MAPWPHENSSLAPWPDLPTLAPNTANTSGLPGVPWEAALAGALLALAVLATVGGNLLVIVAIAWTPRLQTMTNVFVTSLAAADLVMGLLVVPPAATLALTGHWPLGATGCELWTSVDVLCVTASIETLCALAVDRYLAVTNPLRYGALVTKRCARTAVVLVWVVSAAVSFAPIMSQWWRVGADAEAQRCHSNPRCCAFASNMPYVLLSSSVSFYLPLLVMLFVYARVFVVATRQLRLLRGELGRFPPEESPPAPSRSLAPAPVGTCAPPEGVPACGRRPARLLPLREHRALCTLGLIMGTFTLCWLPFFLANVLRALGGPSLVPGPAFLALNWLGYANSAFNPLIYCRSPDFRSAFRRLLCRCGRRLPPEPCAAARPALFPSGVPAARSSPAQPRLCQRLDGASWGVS

N#CC1(c2ccccn2)CCN(Cc2cc(C(=O)N3CCCC3)c(=O)n3ccccc23)CC1
inactive: inhibition [1] 17.4% | residual activity [2] 82% | residual activity [3] 100% | residual activity [4] 100% | residual activity [5] 92% | residual activity [6] 86% | inhibition [7] 24.1% | inhibition [8] 1.36% | residual activity [9] 90% | residual activity [10] 96% | residual activity [11] 84% | residual activity [12] 100% | residual activity [13] 100% | residual activity [14] 89% | residual activity [15] 84% | residual activity [16] 67% | residual activity [17] 93% | residual activity [18] 79% | residual activity [19] 98% | residual activity [20] 100% | residual activity [21] 91% | residual activity [22] 64% | residual activity [23] 100% | residual activity [24] 100% | residual activity [25] 94% | residual activity [26] 79% | residual activity [27] 100% | residual activity [28] 81% | residual activity [29] 100% | residual activity [30] 86% | residual activity [31] 90% | residual activity [32] 80% | residual activity [33] 86% | residual activity [34] 74% | residual activity [35] 79% | residual activity [36] 96% | residual activity [37] 86% | residual activity [38] 72% | residual activity [39] 85% | residual activity [40] 99% | residual activity [41] 82% | residual activity [42] 93% | inhibition [43] 14.6% | residual activity [44] 100% | residual activity [45] 78%

N#CC1(c2ccccn2)CCN(Cc2cc(C(=O)O)c(=O)n3ccccc23)CC1 [MSD-M1PAM]
inactive: inhibition [1] -5.05% | residual activity [2] 95% | residual activity [3] 80% | residual activity [4] 73% | residual activity [5] 87% | residual activity [6] 100% | inhibition [7] 5.17% | inhibition [8] 6.68% | residual activity [9] 100% | residual activity [10] 84% | residual activity [11] 94% | residual activity [12] 100% | residual activity [13] 75% | residual activity [14] 84% | residual activity [15] 75% | residual activity [16] 95% | residual activity [17] 100% | residual activity [18] 100% | residual activity [19] 99% | residual activity [20] 97% | residual activity [21] 100% | residual activity [22] 93% | residual activity [23] 78% | residual activity [24] 100% | residual activity [25] 88% | residual activity [26] 100% | residual activity [27] 99% | residual activity [28] 73% | residual activity [29] 100% | residual activity [30] 100% | residual activity [31] 100% | residual activity [32] 75% | residual activity [33] 95% | residual activity [34] 96% | residual activity [35] 99% | residual activity [36] 100% | residual activity [37] 100% | residual activity [38] 100% | residual activity [39] 100% | residual activity [40] 100% | residual activity [41] 74% | residual activity [42] 95% | inhibition [43] -4.55% | residual activity [44] 85% | residual activity [45] 91%
